Source: US4283328A, “Preparation of dehydropeptides” (Research Corporation, priority 1979, dated 1981)
Values belong to the compound of their own block, whether it stands above or below them. *1 amine or outer side, *2 acyl side, *3 side chain or, on linkers, in order; H or OH if unused. Where a SMILES comes first, the peptide text is derived from it. [ ]: non-standard residue; d: D form. The star is where a group is joined. X1 = O=C(C(=Cc1ccccc1)N[*:1])[*:2]; Cbz = O=C(OCc1ccccc1)*

Experiments:
blood pressure = experiment: Guinea pig blood pressure test; assay type: in vivo; details: relative to BDK = 100%
guinea pig ileum = experiment: Guinea pig ileum contraction assay
Source text: This analog can also be made by solid phase protein synthesis.

renin = experiment: Renin inhibition; assay type: biochemical
[1] = Enzymolysis with chymotrypsin (stability to enzymatic hydrolysis); assay type: in vitro ADME; details: chymotrypsin; 2 hours at 37°, tris buffer pH 8; ninhydrin color; read-out: hydrolysis by α-chymotrypsin
Description: (§1) One purpose in introducing unsaturation into a peptide chain is to increase the binding of the peptides to active sites and protect the peptide from enzymatic cleavage, e.g. hydrolysis, in the bloodstream, thus enhancing activity. One method of measuring the stability of peptides to enzymatic hydrolysis is to treat the peptides with chymotrypsin which is specific for phenyl bonds.
(§2) A solution of 46 mg of N-Carbobenzoxy-L-prolyl-dehydrophenylalanyl-L-phenylalanine in 4 ml of methanol/water (1:1) was diluted to 10 ml with a 0.05 N tris buffer solution (pH 8) containing 0.46 mg of α-chymotrypsin. After standing 2 hours at 37° in a constant temperature bath, a 0.5 ml sample was treated with 0.5 ml of a 1.25% acetone solution of ninhydrin.

[2] = test system: angiotensin I converting enzyme; experiment: Inhibition of angiotensin I converting enzyme; assay type: biochemical
α-chymotrypsin = experiment: Enzymolysis with chymotrypsin (stability to enzymatic hydrolysis); assay type: in vitro ADME
Description: as §1, §2

Compound: N=C(N)NCCC[C@H](NC(=O)[C@H](Cc1ccccc1)NC(=O)[C@@H]1CCCN1C(=O)[C@H](CO)NC(=O)C(=Cc1ccccc1)NC(=O)CNC(=O)[C@@H]1CCCN1C(=O)[C@@H]1CCCN1C(=O)[C@@H](N)CCCNC(=N)N)C(=O)O [dehydro BDK, Arginyl-prolyl-prolyl-glycyl-dehydrophenylalanylseryl-prolyl-phenylalanyl-arginine] (H-RPPG[X1]SPFR-OH)
reduction of blood pressure, BDK as the standard at 100% (blood pressure; given intra-arterially): 277.7% | decrease of blood pressure, BDK as the standard at 100% (blood pressure; given intravenously): 6250% | increase in contraction, BDK as the standard at 100% (guinea pig ileum; guinea pig ileum, relative to BDK = 100%): 247.6%

Compound: COC(=O)[C@H](Cc1ccccc1)NC(=O)[C@@H](NC(=O)C(=Cc1ccccc1)NC(=O)[C@@H](N)CC(C)C)C(C)C [leudehydrophe-val-phe.OMe, Leucyl-dehydrophenylalanyl-valyl-phenylalanine methyl ester]
inhibition of renin (renin): inhibits renin

metabolised at 2 h [1]: 5%
Compound: O=C(O)[C@H](Cc1ccccc1)NC(=O)[C@H](Cc1ccccc1)NC(=O)[C@@H]1CCCN1C(=O)OCc1ccccc1 [ZPro-Phe-Phe.OH, reference compound] (Cbz-Pro-Phe-Phe-OH)

inhibition of angiotensin I converting enzyme [2]: inhibit angiotensin I converting enzyme
Compound: CC(C)C[C@H](NC(=O)[C@H](Cc1c[nH]cn1)NC(=O)C(=Cc1ccccc1)NC(=O)[C@@H]1CCCN1C(=O)OCc1ccccc1)C(=O)O [Z-Pro-ΔPhe-His-Leu.OH]

Compound: Tyr-DAla-Gly-ΔPhe-Met-NH2 Acetate
activity in the guinea pig ileum contraction assay (guinea pig ileum): active

inhibition of angiotensin I converting enzyme [2]: inactive
Compound: CC(C)C[C@H](NC(=O)[C@H](Cc1c[nH]cn1)NC(=O)C(=Cc1ccccc1)NC(=O)[C@@H]1CCCN1)C(=O)O [tetrapeptide freed of the blocking group, H.Pro-ΔPhe-His-Leu.OH.2HBr]

ninhydrin color formed after α-chymotrypsin treatment (α-chymotrypsin; 2 hours at 37°, tris buffer pH 8, methanol/water, compared with blank solution): matched that of a blank solution | stability to chymotrypsin (α-chymotrypsin; treatment with chymotrypsin): stable to chymotrypsin
Compound: O=C(N[C@@H](Cc1ccccc1)C(=O)O)C(=Cc1ccccc1)NC(=O)[C@@H]1CCCN1C(=O)OCc1ccccc1 [N-Carbobenzoxy-L-prolyl-dehydrophenylalanyl-L-phenylalanine]
